Data from ChEMBL document CHEMBL5375968, “Peptide TK-HR from the Skin of Chinese Folk Medicine Frog Hoplobatrachus Rugulosus Accelerates Wound Healing via the Activation of the Neurokinin-1 Receptor” (J Med Chem, 2023).
Calls of active or inactive are those of the source. The calls are words filed in the database; no cut-off is given here.

Assays:
HUVEC [1] = assay: Induction of cell migration in HUVEC cells assessed as healing rate at 20 uM measured after 48 hrs by scratch healing assay (reference value: 57.2 %); assay type: functional, Homo sapiens
Mast cell = assay: Inhibition of degranulation in mast cells (unknown origin) assessed as beta- hexosaminidase release upto 40 uM; assay type: functional, cell-based
Escherichia coli = assay: Antimicrobial activity against Escherichia coli ATCC 25922 assessed as microbial growth inhibition at 100 uM; assay type: functional, organism-based
[2] = Toxicity in BALB/c mouse model of full-thickness wounds assessed as inflammatory foci in kidney at 200 ug/ml, TOP bid measured upto 8 days by H and E staining based analysis; assay type: tissue-based; settings: in vivo, topical_or_ocular, 192 h, dose 200 µg/ml, time < 8 day
Candida albicans = assay: Antimicrobial activity against Candida albicans ATCC 10231 assessed as microbial growth inhibition at 100 uM; assay type: functional, organism-based
Mus musculus [3] = organism: Mus musculus; assay: Induction of wound healing in BALB/c mouse model of full-thickness wounds assessed as increase in number of blood vessels in wound skin at 50 ug/ml, TOP bid measured after 4 days by IHC analysis; assay type: functional; settings: dose 50.0 µg/ml, time 4.0 day
[4] = Induction of wound healing in BALB/c mouse model of full-thickness wounds at 100 ug/ml, TOP bid measured after 6 days (reference value: 71.7 %); assay type: functional; settings: dose 100 µg/ml, time 6 day
RAW264.7 [5] = assay: Effect on total Smad3 level in mouse RAW264.7 cells at 2.5 to 20 uM incubated for 4 hrs by Western blot analysis; assay type: functional, cell-based; settings: dose 2.5-20 µM
Neutrophil [6] = assay: Induction of wound healing in BALB/c mouse model of full-thickness wounds assessed as increase in number of neutrophil infiltration in wound skin at 50 ug/ml, TOP bid measured after 2 days by IHC analysis; assay type: functional, cell-based; settings: dose 50.0 µg/ml, time 2.0 day
Splenic fibroblast [7] = assay: Effect on Smad3 activation in human […] fibroblasts upto 20 uM by Western blot analysis; assay type: functional, cell-based
Splenic fibroblast [8] = assay: Effect on TGF-1beta production in human […] fibroblasts at 5 to 40 uM incubated for 24 hrs by ELISA; assay type: functional, cell-based; settings: dose 5-40 µM
RAW264.7 [9] = assay: Induction of TNF-alpha expression in mouse RAW264.7 cells incubated for 24 hrs by ELISA; assay type: functional, cell-based; settings: dose 2.5-20 µM
HUVEC [10] = assay: Angiogenic activity in HUVEC cells assessed as increase in tube formation at 5 uM measured for 4 hrs by microscopic analysis relative to control; assay type: functional, Homo sapiens
[11] = Induction of wound healing in BALB/c mouse model of full-thickness wounds at 50 ug/ml, TOP bid measured after 6 days (reference value: 71.7 %); assay type: functional; settings: dose 50 µg/ml, time 6 day
Aorta = assay: Ex vivo angiogenic activity in C57BL/6 mouse aortic ring assessed as increase in sprouting by measuring vessel outgrowth area at 10 uM measured for 7 days by microscopic analysis relative to control; assay type: functional; settings: time 7 day
[12] = Toxicity in BALB/c mouse model of full-thickness wounds assessed as inflammatory foci in liver at 200 ug/ml, TOP bid measured upto 8 days by H and E staining based analysis; assay type: tissue-based; settings: in vivo, topical_or_ocular, 192 h, dose 200 µg/ml, time < 8 day
Mus musculus [13] = organism: Mus musculus; assay: Induction of wound healing in BALB/c mouse model of full-thickness wounds assessed as increase in recruitment of M1-type macrophages in wound skin at 50 ug/ml, TOP bid measured after 2 days by IHC analysis; assay type: functional; settings: dose 50.0 µg/ml, time 2.0 day
RAW264.7 [14] = assay: Induction of IL-1beta expression in mouse RAW264.7 cells incubated for 24 hrs by ELISA; assay type: functional, cell-based; settings: dose 2.5-20 µM
HaCaT [15] = assay: Induction of cell migration in human HaCaT cells assessed as healing rate at 20 uM measured after 48 hrs by scratch healing assay (reference value: 63.1 %); assay type: functional
[16] = Induction of TGF-beta1 level in mouse RAW264.7 cells at 20 uM incubated for 24 hrs by ELISA; assay type: functional
Splenic fibroblast [17] = assay: Effect on cell proliferation in human […] fibroblasts at 5 to 40 uM incubated for 24 hrs by MTT assay; assay type: functional, cell-based; settings: dose 5-40 µM
Mus musculus [18] = organism: Mus musculus; assay: Induction of wound healing in BALB/c mouse model of full-thickness wounds assessed as parallel alignment of collagen fibers at 50 to 200 ug/ml, TOP bid measured after 8 days by Masson's Trichome staining based analysis; assay type: functional; settings: dose 50-200 µg/ml, time 8.0 day
[19] = Induction of wound healing in BALB/c mouse model of full-thickness wounds at 100 ug/ml, TOP bid measured after 4 days (reference value: 48.6 %); assay type: functional; settings: dose 100 µg/ml, time 4 day
HUVEC [20] = assay: Angiogenic activity in HUVEC cells assessed as increase in tube formation at 20 uM measured for 4 hrs by microscopic analysis relative to control; assay type: functional, Homo sapiens
RAW264.7 [21] = assay: Induction of phagocytosis in mouse RAW264.7 cells assessed as increase in neutral red dye uptake by measuring optical density at 540 nm at 5 uM incubated for 24 hrs followed by dye addition measured after 4 hrs by absorbance based assay (reference value: 0.073); assay type: functional; settings: time 28 hrs
Mus musculus [22] = organism: Mus musculus; assay: Induction of wound healing in BALB/c mouse model of full-thickness wounds assessed as increase in TNF-alpha level in wound skin at 50 ug/ml, TOP bid measured after 2 days by ELISA; assay type: functional; settings: dose 50.0 µg/ml, time 2.0 day
Neutrophil [23] = assay: Induction of cell migration in Aprepitant-treated BALB/c mouse neutrophils at 5 to 40 uM incubated for 8 hrs by transwell migration assay; assay type: functional, cell-based; settings: dose 5-40 µM
Mus musculus [24] = organism: Mus musculus; assay: Induction of wound healing in BALB/c mouse model of full-thickness wounds assessed as increase in recruitment of M2-type macrophages in wound skin at 50 ug/ml, TOP bid measured after 4 days by IHC analysis; assay type: functional; settings: dose 50.0 µg/ml, time 4.0 day
HUVEC [25] = assay: Angiogenic activity in HUVEC cells assessed as increase in tube formation at 10 uM measured for 4 hrs by microscopic analysis relative to control; assay type: functional, Homo sapiens
Mus musculus [26] = organism: Mus musculus; assay: Induction of wound healing in BALB/c mouse model of full-thickness wounds assessed as increase in TGF-1beta production in wound skin at 50 to 200 ug/ml, TOP bid measured after 8 days by ELISA; assay type: functional; settings: dose 50-200 µg/ml, time 8.0 day
RAW264.7 [27] = assay: Effect on total Smad2 level in mouse RAW264.7 cells at 2.5 to 20 uM incubated for 4 hrs by Western blot analysis; assay type: functional, cell-based; settings: dose 2.5-20 µM
Mus musculus [28] = organism: Mus musculus; assay: Induction of wound healing in BALB/c mouse model of full-thickness wounds assessed as increase in phosphorylated Smad2 level in wound skin at 50 ug/ml, TOP bid measured after 4 days by Western blot analysis; assay type: functional; settings: dose 50.0 µg/ml, time 4.0 day
RAW264.7 [29] = assay: Effect on total ERK level in mouse RAW264.7 cells at 2.5 to 20 uM incubated for 4 hrs by Western blot analysis; assay type: functional, cell-based; settings: dose 2.5-20 µM
HaCaT [30] = assay: Induction of cell migration in human HaCaT cells assessed as healing rate at 20 uM measured after 24 hrs by scratch healing assay (reference value: 36.8 %); assay type: functional
[31] = Toxicity in BALB/c mouse model of full-thickness wounds assessed as inflammatory foci in spleen at 200 ug/ml, TOP bid measured upto 8 days by H and E staining based analysis; assay type: tissue-based; settings: in vivo, topical_or_ocular, 192 h, dose 200 µg/ml, time < 8 day
Splenic fibroblast [32] = assay: Effect on cell migration in human […] fibroblasts at 20 uM incubated upto 48 hrs by scratch healing assay; assay type: functional, cell-based

Q: What does the source list for H-KPNPDRFYGLM-NH2?
A: Activity (HUVEC [1]): 83.4%; inhibition (Mast cell): Active; Activity (Escherichia coli): inactive; Activity [2]: Non-Toxic; Activity (Candida albicans): inactive; Activity (Mus musculus [3]): Active; Activity [4]: 93.9%; Activity (RAW264.7 [5]): inactive; Activity (Neutrophil [6]): Active; Activity (Splenic fibroblast [7]): inactive; Activity (Splenic fibroblast [8]): inactive; Activity (RAW264.7 [9]): Dose-Dependent Effect; Activity (HUVEC [10]): 85.3%; Activity [11]: 86.6%; Activity (Aorta): 117.3%; Activity [12]: Non-Toxic; Activity (Mus musculus [13]): Active; Activity (RAW264.7 [14]): Dose-Dependent Effect; Activity (HaCaT [15]): 92.8%; Activity [16]: 119.3 pg/mL; Activity (Splenic fibroblast [17]): inactive; Activity (Mus musculus [18]): Active; Activity [19]: 70.9%; Activity (HUVEC [20]): 181.4%; OD (RAW264.7 [21]): 0.103; Activity (Mus musculus [22]): Active; Activity (Neutrophil [23]): inactive; Activity (Mus musculus [24]): Active; Activity (HUVEC [25]): 139.5%; Activity (Mus musculus [26]): inactive; Activity (RAW264.7 [27]): inactive; Activity (Mus musculus [28]): Active; Activity (RAW264.7 [29]): inactive; Activity (HaCaT [30]): 72.1%; Activity [31]: Non-Toxic; Activity (Splenic fibroblast [32]): inactive
